Test results: the supplement of paper PMC12494721

Key:
Details in all cases: incubation time: 27 h, anaerobic, 37 °C
Escherichia coli IAI1 [1] = assay: fold change of Putrescine concentration vs plate DMSO controls (fold change (ratio)); higher = more amine produced
[2] = tested on: Klebsiella aerogenes DSM 30053; assay: as above
Escherichia coli IAI1 [3] = assay: growth (OD595) fold change vs plate DMSO controls (fold change (ratio)); higher = more growth
[4] = tested on: Ruminococcus gnavus DSM 108212; assay: as above
[5] = tested on: Clostridium sporogenes DSM 1664; assay: as above
[6] = tested on: Klebsiella aerogenes DSM 30053; assay: as above
[7] = tested on: Ruminococcus gnavus DSM 108212; assay: fold change of 2-Phenylethylamine concentration vs plate DMSO controls (fold change (ratio)); higher = more amine produced
Escherichia coli IAI1 [8] = assay: fold change of Cadaverine concentration vs plate DMSO controls (fold change (ratio)); higher = more amine produced
[9] = tested on: Klebsiella aerogenes DSM 30053; assay: as above
[10] = tested on: Klebsiella aerogenes DSM 30053; assay: fold change of Histamine concentration vs plate DMSO controls (fold change (ratio)); higher = more amine produced
Method: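 Dose-response follow-up: bacteria (E. coli IAI1, K. aerogenes DSM 30053, C. sporogenes DSM 1664, R. gnavus DSM 108212) were grown anaerobically in mGAM at 37 °C for 27 h with compound at 0.6125-20 µM. Amines were measured in the whole culture by targeted LC-MS/MS. Metabolite fold change and OD595 fold change are relative to plate DMSO controls; n=2 biological replicates. OD fold changes are not clipped, so slightly negative values mean no growth.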

[11] = tested on: Ruminococcus gnavus DSM 108212; assay: fold change of Tryptamine concentration vs plate DMSO controls (fold change (ratio)); higher = more amine produced
[12] = tested on: Clostridium sporogenes DSM 1664; assay: as above

CCn1cc(C(=O)O)c(=O)c2cc(F)c(N3CCNCC3)nc21 [Enoxacin]
Details | fold change of 2-Phenylethylamine concentration | fold change of Cadaverine concentration | fold change of Histamine concentration | fold change of Putrescine concentration | fold change of Tryptamine concentration | growth
Escherichia coli IAI1 [1], 0.6125 µM | – | – | – | 0.829 | – | –
Escherichia coli IAI1 [1], 1.25 µM | – | – | – | 0.362 | – | –
Escherichia coli IAI1 [1], 2.5 µM | – | – | – | 0.557 | – | –
Escherichia coli IAI1 [1], 5 µM | – | – | – | 0.832 | – | –
Escherichia coli IAI1 [1], 10 µM | – | – | – | 0.916 | – | –
Escherichia coli IAI1 [1], 20 µM | – | – | – | 0.993 | – | –
Escherichia coli IAI1 [3], 0.6125 µM | – | – | – | – | – | 0.893
Escherichia coli IAI1 [3], 1.25 µM | – | – | – | – | – | -0.0647
Escherichia coli IAI1 [3], 2.5 µM | – | – | – | – | – | -0.041
Escherichia coli IAI1 [3], 5 µM | – | – | – | – | – | 0.063
Escherichia coli IAI1 [3], 10 µM | – | – | – | – | – | 0.0275
Escherichia coli IAI1 [3], 20 µM | – | – | – | – | – | -0.0283
Escherichia coli IAI1 [8], 0.6125 µM | – | 1.43 | – | – | – | –
Escherichia coli IAI1 [8], 1.25 µM | – | 1.6 | – | – | – | –
Escherichia coli IAI1 [8], 2.5 µM | – | 1.14 | – | – | – | –
Escherichia coli IAI1 [8], 5 µM | – | 0.433 | – | – | – | –
Escherichia coli IAI1 [8], 10 µM | – | 0.292 | – | – | – | –
Escherichia coli IAI1 [8], 20 µM | – | 0.278 | – | – | – | –
[2], 0.6125 µM | – | – | – | 1.03 | – | –
[2], 1.25 µM | – | – | – | 1.06 | – | –
[2], 2.5 µM | – | – | – | 1.2 | – | –
[2], 5 µM | – | – | – | 1.27 | – | –
[2], 10 µM | – | – | – | 1.3 | – | –
[2], 20 µM | – | – | – | 1.34 | – | –
[4], 0.6125 µM | – | – | – | – | – | 0.917
[4], 1.25 µM | – | – | – | – | – | 1.07
[4], 2.5 µM | – | – | – | – | – | 0.725
[4], 5 µM | – | – | – | – | – | 0.638
[4], 10 µM | – | – | – | – | – | 0.638
[4], 20 µM | – | – | – | – | – | 0.488
[5], 0.6125 µM | – | – | – | – | – | 1.15
[5], 1.25 µM | – | – | – | – | – | 1.19
[5], 2.5 µM | – | – | – | – | – | 1.06
[5], 5 µM | – | – | – | – | – | 0.904
[5], 10 µM | – | – | – | – | – | 0.245
[5], 20 µM | – | – | – | – | – | 0.00474
[6], 0.6125 µM | – | – | – | – | – | 0.845
[6], 1.25 µM | – | – | – | – | – | 1.25
[6], 2.5 µM | – | – | – | – | – | 0.554
[6], 5 µM | – | – | – | – | – | 0.373
[6], 10 µM | – | – | – | – | – | 0.469
[6], 20 µM | – | – | – | – | – | 0.328
[7], 0.6125 µM | 0.788 | – | – | – | – | –
[7], 1.25 µM | 1.01 | – | – | – | – | –
[7], 2.5 µM | 1.5 | – | – | – | – | –
[7], 5 µM | 1.16 | – | – | – | – | –
[7], 10 µM | 1.04 | – | – | – | – | –
[7], 20 µM | 1.15 | – | – | – | – | –
[9], 0.6125 µM | – | 0.977 | – | – | – | –
[9], 1.25 µM | – | 0.984 | – | – | – | –
[9], 2.5 µM | – | 0.985 | – | – | – | –
[9], 5 µM | – | 1.01 | – | – | – | –
[9], 10 µM | – | 0.999 | – | – | – | –
[9], 20 µM | – | 0.994 | – | – | – | –
[10], 0.6125 µM | – | – | 0.971 | – | – | –
[10], 1.25 µM | – | – | 1.17 | – | – | –
[10], 2.5 µM | – | – | 1.18 | – | – | –
[10], 5 µM | – | – | 0.54 | – | – | –
[10], 10 µM | – | – | 0.252 | – | – | –
[10], 20 µM | – | – | 0.329 | – | – | –
[11], 0.6125 µM | – | – | – | – | 0.907 | –
[11], 1.25 µM | – | – | – | – | 1.03 | –
[11], 2.5 µM | – | – | – | – | 1.98 | –
[11], 5 µM | – | – | – | – | 1.5 | –
[11], 10 µM | – | – | – | – | 1.3 | –
[11], 20 µM | – | – | – | – | 1.47 | –
[12], 0.6125 µM | – | – | – | – | 0.988 | –
[12], 1.25 µM | – | – | – | – | 0.965 | –
[12], 2.5 µM | – | – | – | – | 0.972 | –
[12], 5 µM | – | – | – | – | 0.712 | –
[12], 10 µM | – | – | – | – | 0.133 | –
[12], 20 µM | – | – | – | – | 0.0376 | –

C[C@@H](O)[C@H]1C(=O)N2C(C(=O)O)=C(S[C@@H]3CN[C@H](C(=O)N(C)C)C3)[C@H](C)[C@H]12 [Meropenem]
Details | fold change of 2-Phenylethylamine concentration, [7] | fold change of Cadaverine concentration, [9] | fold change of Histamine concentration, [10] | fold change of Putrescine concentration, [2] | fold change of Tryptamine concentration, [11] | growth, [4] | growth, [6]
0.6125 µM | 0.912 | 0.982 | 0.953 | 1 | 1.11 | 1.13 | 0.844
1.25 µM | 0.801 | 1.01 | 0.643 | 1.06 | 0.93 | 1.07 | 0.992
2.5 µM | 0.578 | 1 | 0.612 | 0.976 | 0.801 | 1.63 | 0.894
5 µM | 0.185 | 1.06 | 0.462 | 1.01 | 0.259 | 1.88 | 1.4
10 µM | 0.162 | 1.13 | 0.289 | 0.879 | 0.217 | 0.41 | 0.935
20 µM | 0.162 | 1.18 | 0.227 | 0.667 | 0.2 | 0.365 | 0.363

CN1CCN(c2c(F)cc3c(=O)c(C(=O)O)cn4c3c2SCC4)CC1 [Rufloxacin]
Details | fold change of 2-Phenylethylamine concentration, [7] | fold change of Cadaverine concentration, [9] | fold change of Histamine concentration, [10] | fold change of Putrescine concentration, [2] | fold change of Tryptamine concentration, [11] | fold change of Tryptamine concentration, [12] | growth, [4] | growth, [5] | growth, [6]
0.6125 µM | 0.871 | 0.967 | 1.1 | 0.99 | 0.989 | 1 | 1.07 | 1.09 | 0.848
1.25 µM | 1.12 | 0.979 | 1.03 | 0.992 | 1.18 | 0.994 | 0.974 | 0.879 | 0.939
2.5 µM | 2.04 | 0.981 | 1.96 | 1.05 | 2.02 | 0.972 | 0.91 | 0.898 | 0.636
5 µM | 1.33 | 1.03 | 0.834 | 1.12 | 1.51 | 0.931 | 0.61 | 1.09 | 0.425
10 µM | 1.22 | 1.09 | 0.211 | 1.19 | 1.24 | 0.674 | 0.593 | 0.742 | 0.466
20 µM | 1.18 | 1.12 | 0.22 | 1.19 | 1.16 | 0.0448 | 0.484 | 0.0686 | 0.37
